Laboratory results as given in PubChem BioAssay (NCI).
“And” between values parts separate entries of the source, which are not always exact repeats. Equal values may be shown once.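 96-well plates; 48 h exposure; 5 concentrations. Endpoints by linear interpolation between flanking doses. Not reached: highest tested concentration assigned. The concentration for 50% growth inhibition is given as GI50. TGI is the concentration that stops growth completely.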

Assays:
Assay in all cases: NCI anticancer screen, dose series, 48 h
KM12 colon = system: KM12 colon
TK-10 renal = system: TK-10 renal
OVCAR-3 ovarian = system: OVCAR-3 ovarian
UO-31 renal = system: UO-31 renal
RXF 393 renal = system: RXF 393 renal
OVCAR-8 ovarian = system: OVCAR-8 ovarian
SF-268 CNS = system: SF-268 CNS
HOP-62 NSCLC = system: HOP-62 NSCLC
NCI-H460 lung = system: NCI-H460 lung
MOLT-4 leukemia = system: MOLT-4 leukemia

Row | SMILES | TGI (KM12 colon) | TGI (TK-10 renal) [µM] | TGI (OVCAR-3 ovarian) [µM] | TGI (UO-31 renal) [µM] | TGI (RXF 393 renal) | TGI (OVCAR-8 ovarian) | TGI (SF-268 CNS) | TGI (HOP-62 NSCLC) | TGI (NCI-H460 lung) [µM] | GI50 (KM12 colon) [nM] | GI50 (OVCAR-3 ovarian) [µM] | GI50 (UO-31 renal) [µM] | GI50 (MOLT-4 leukemia) [µM] | TGI (MOLT-4 leukemia) [µM] | GI50 (OVCAR-8 ovarian) [µM] | GI50 (SF-268 CNS) [µM] | GI50 (HOP-62 NSCLC) [µM] | GI50 (NCI-H460 lung) [µM] | GI50 (RXF 393 renal) [nM] | GI50 (TK-10 renal) [nM]
1 | Nc1nc(Cl)cc(NCCCCCCCCCCNc2cc(Cl)nc(N)n2)n1 | > 100 µM | > 100 | > 100 | > 100 | > 100 µM | 63 µM | > 100 µM | > 100 µM | > 100 | – | – | – | – | – | – | – | – | – | – | –
2 | O=C(O)c1oc2ccc([N+](=O)[O-])c3c2c1CCC3 | > 100 µM | > 100 | > 100 | > 100 | > 100 µM | > 100 µM | > 100 µM | > 100 µM | > 100 | – | – | – | – | – | – | – | – | – | – | –
3 | CC(=O)OCC1OC(O[C@@H]2C[C@H]3C(C)(C)[C@H](OC(C)=O)CC[C@]3(C)[C@H]3CC[C@@H]4[C@]5(CC[C@@]4(C)[C@@]32C)O[C@@H]([C@H](O)C(C)(C)O)C[C@@H]5C)C(O)C(O)C1O (some centres not stated) | 7.68 µM | – | 20.5 | 20.8 | 16.1 µM | 23.7 µM | 23.7 µM | 27.3 µM | 20.8 | 2000 | 7.05 | 7.85 | 3.13 | 12.2 | 9.35 | 9.34 | 14.2 | 6.54 | – | –
4 | NC(=O)c1ccc(-c2c3ccccc3cc3c2ccc2ccccc23)cc1 | 15.2 µM | – | 6.98 | 39.5 | 7.48 µM | 36.3 µM | 18.1 µM | 23.2 µM | 14.9 | 1320 | 1.94 | 7.1 | 5.5 | > 100 | 6.51 | 2.81 | 4.28 | 3.31 | 2120 | –
5 | Fc1cc(Nc2ccc3c(OCCCN4CCOCC4)cccc3n2)ccc1Cl | 5.46 µM | 4.1 | 10.1 | 4.11 | 4.74 µM | 15.3 µM | 17 µM | 3.43 µM | – | 2300 | 3.08 | 1.65 | 1.68 | 3.88 | 4.03 | 3.13 | 1.71 | – | 2160 | 2010
6 | C(=C1/CCCCC([n+]2ccccc2)=N1)/c1ccccc1 | – | – | > 100 | > 100 | > 100 µM | > 100 µM | > 100 µM | > 100 µM | > 100 | – | – | – | – | > 100 | – | – | – | – | – | –
7 | ClCc1ccc(Cn2cnc3ncnc(Cl)c32)cc1 | 3.48 µM | 2.92 | 3.39 | 66.7 | 4.14 µM | 11 µM | 3.43 µM | 3.16 µM | 4.31 | 1660 | 1.8 | 4.82 | – | – | 3.14 | 1.64 | 1.78 | 1.78 | 1670 | 1480
8 | COc1cc(SC)ccc1C(=O)N1CCCC(C)C1 (configuration not stated) | > 100 µM | > 100 | > 100 | > 100 | – | > 100 µM | > 100 µM | > 100 µM | > 100 | > 100000 | > 100 | > 100 | 77.7 | > 100 | > 100 | > 100 | > 100 | > 100 | – | > 100000
9 | O=C(O)CNS(=O)(=O)c1ccc(NC(=O)c2cccc([N+](=O)[O-])c2)cc1 | > 100 µM | > 100 | > 100 | > 100 | > 100 µM | > 100 µM | > 100 µM | – | > 100 | – | – | – | – | > 100 | – | – | – | – | – | –
10 | O=[N+]([O-])C(=C(c1ccccc1)c1ccccc1)[N+](=O)[O-] | 30.2 µM | 33.2 | 35.5 | 36.6 | 6.71 µM | 21.5 µM | 12.7 µM | – | 21 | – | – | – | – | 22.7 | – | – | – | – | – | –
11 | COc1ccc(/C=C/CO)cc1OC | > 100 µM | > 100 | > 100 | > 100 | > 100 µM | > 100 µM | > 100 µM | – | – | – | – | – | – | > 100 | – | – | – | – | – | –
12 | CC(=O)Nc1[nH]c(=O)[nH]c(=O)c1N(C(C)=O)C(C)=O | > 100 µM | – | > 100 | > 100 | > 100 µM | > 100 µM | > 100 µM | – | > 100 | – | – | – | – | > 100 | – | – | – | – | – | –
13 | COCCn1cc(-c2csc(-c3c[nH]c4ccc(F)cc34)n2)c2cccnc21 | > 100 µM | – | > 100 | > 100 | > 100 µM | > 100 µM | > 100 µM | > 100 µM | > 100 | 1770 | 3.34 | 4.41 | 5.56 | > 100 | 4.1 | 7.67 | 2.02 | 3.38 | 5910 | –
14 | CN(C)c1ccc(/C=N/Nc2ccc(-c3nc4ccccc4[nH]3)cc2)cc1 | > 50 µM | > 50 | > 50 | 23.8 | – | 32.4 µM | 39.8 µM | > 50 µM | 20.4 | 9810 | 31.7 | 7.44 | – | – | 9.79 | 7.36 | 20.8 | 9.33 | – | 47300
15 | C[C@H]1CC(=O)[C@@]2(O)C#C/C=C\C#C[C@@H]3Nc4c(cc(O)c5c4C(=O)c4ccccc4C5=O)[C@]24O[C@]314 | 0.226 µM and 0.48 µM | – | > 25 | – | 0.0684 µM and 0.242 µM | 0.124 µM and 0.258 µM | 0.0897 µM and 0.543 µM | 0.00698 µM and 0.00625 µM | – | 128 | – | – | 0.0025 | 0.00278 | 0.00468 | 0.00599 | 0.0025 | 0.0025 | 37.3 | 492
16 | COc1ccc2c(c1)[n+]([O-])c(-c1ccc(Cl)c(Cl)c1)c(N)[n+]2[O-] | > 100 µM | – | 68 | > 100 | – | > 100 µM | > 100 µM | > 100 µM | > 100 | – | – | – | – | > 100 | – | – | – | – | – | –
17 | CCn1c(-c2cc3ccccc3cc2OC(=O)c2ccccc2)n[nH]c1=S | > 50 µM | > 50 | > 50 | > 50 | > 50 µM | – | > 50 µM | > 50 µM | – | 42300 | 3.19 | 21.1 | 28 | > 50 | – | > 50 | > 50 | – | > 50000 | > 50000
